Source: US11433042B2, “Methods and compositions for treating metabolic disorders” (Joslin Diabetes Center, Inc., priority 2017, dated 2022)

Tests used:
lipoprotein lipase (LPL) = assay: mRNA expression by qPCR in tissue from 12,13-diHOME treated mice; format: in vivo; details: diet-induced obese mice, 2 weeks at 10 μg/kg body weight
Procedure: For the experiments with daily injections of 12,13-diHOME, mice were fed with a high-fat diet containing 60 kcal % fat (Research Diets Stock no. D12492) for 16 weeks prior to treatment and during the course of the experiment. Mice were first injected intraperitoneally daily with 1 ug/kg body weight, 12,13-diHOME in 0.1% BSA w/v in PBS or vehicle and body for one week, then injected every day with 10 ug/kg body weight two weeks. For all experiments, serum was collected and triglycerides were measured using a standard enzymatic assay (ZenBiosystems). Non-esterified FA were also measured with a colorimetric assay (Wako Chemicals USA). High-density and low-density lipoprotein fractions were isolated and cholesterol was measured with a colorimetric assay (Abcam). All mice were allowed ad libitum access to water and food. Total RNA was extracted from tissue with Trizol and purified using a spin column kit (Zymo Research). RNA (500 ng-1 μg) was reverse transcribed with a high-capacity complementary DNA (cDNA) reverse transcription kit (Applied Biosystems). Real-time PCR was performed in mouse tissues starting with 10 ng of cDNA and forward and reverse oligonucleotide primers (300 nM each) in a final volume of 10 μl with SYBR green PCR Master Mix (Roche). Fluorescence was determined and analyzed in an ABI Prism 7900 sequence detection system (Applied Biosystems). […]

WT-1 brown adipocytes = assay: 14C-labeled palmitic acid uptake and oxidation; format: cell-based; details: mature brown adipocytes
Procedure: FA uptake and oxidation were determined by measuring both ^14C-labeled palmitic acid uptake and conversion of ^14C-labeled palmitic acid into CO2. WT-1 brown preadipocytes were differentiated according to a standard adipogenic differentiation protocol for 9 days before cells were serum starved for 1 hour. Cells were treated with 1 μM 12,13-diHOME or methyl acetate vehicle in 0.1% w/v BSA in PBS for 15 minutes before the culture medium was removed, and cells were incubated with DMEM/H containing 4% FA-free BSA w/v in PBS, 0.5 mM palmitic acid, and 0.2 μCi/mL [1-^14C]-palmitic acid (PerkinElmer Life and Analytical Science, Waltham, Mass.) for 1 h. The incubation medium was transferred to a vial containing 1M acetic acid, capped quickly, and allowed to incubate for 1 h for CO2 gas to be released. The CO2 released was absorbed by hyamine hydroxide, and activity was counted. FA oxidation was calculated from CO2 generated. To measure fatty acid uptake, cells were rinsed twice with PBS and lysed after incubation with [1-^14C]-palmitic acid. Lipids were extracted using a chloroform-methanol mixture (2:1), and ^14C-counts were determined in the organic phase. Protein concentrations were determined by using the Pierce BCA kit (Life Technologies) according to instructions, and FA uptake (^14C lipids in the cells) and oxidation (^14CO2 generated) were normalized to protein content. […]

mature brown adipocytes = assay: In vitro fatty acid uptake (FFA-SS-Luc) in brown adipocytes constitutively expressing luciferase; format: cell-based, mice; details: 1 μM for 15 minutes, 10 μM FFA-SS-Luc
Procedure: Stromal vascular cells were isolated from interscapular brown adipose tissue dissected from TgLuc mice (Stock no. 008450) obtained from The Jackson Laboratory. Cells were immortalized and differentiated into adipocytes in vitro according to the WT-1 protocol (Tseng, Y. H. et al., Mol. Cell Biol. 24, 1918-1929 (2004)). After 1 hour of serum starvation, mature adipocytes were treated with 1 μM 12,13-diHOME or methyl acetate vehicle in 0.1% w/v BSA in PBS for 15 minutes. After this treatment, cells were incubated with 10 μm FFA-SS-Luc (Intrace Medical) and imaged using the IVIS Spectrum CT using sequential 30 s exposures for 1 hour. Data was analyzed using Living Image Software and movies were assembled from individual images using ImageJ. All cultures were confirmed to be Mycoplasma free.

CCCCCC(O)C(O)C/C=C\CCCCCCCC(=O)O (stereo not shown) [12,13-diHOME, 12,13-dihydroxy-9Z-octadecenoic acid]
expression of lipoprotein lipase (LPL) in BAT (lipoprotein lipase (LPL)): increased | radiolabeled FA uptake (WT-1 brown adipocytes; 1 μM for 15 minutes, 14C palmitic acid): markedly increased | FA oxidation (WT-1 brown adipocytes; 1 μM, 14C palmitic acid to CO2): trend to increase | FFA-SS-Luc uptake in vitro (mature brown adipocytes): significantly increased
